Patent publication US20140357713A1, “ANTIMICROBIAL COMPOUNDS AND METHODS OF USE” (NexMed Holdings, Inc., priority 2012, published 2014)
Read-outs that look alike come from different tables or passages of the source.

Tests used:
Staphylococcus aureus = assay: Extended time kill study, Example 34 (0 to 24 h); type: cell-based
Procedure, shortened: (§1)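 Strain suspensions prepared as for MIC testing were mixed 1:1 with compound solution at higher multiples of MIC. Samples taken over 0 to 24 h were diluted in test medium and plated on agar, and colonies were counted after 24–48 h incubation.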

Escherichia coli = assay: Extended time kill study, Example 34 (0 to 24 h); type: cell-based
Procedure, shortened: as §1

[1] = tested on: Candida albicans (ATCC 90029); assay: Minimum inhibitory concentration (MIC) assay, Example 33; type: cell-based; details: Candida albicans
Procedure, shortened: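 MIC read per CLSI after incubation at 35° C. Colonies in RPMI 1640 adjusted to OD530 0.08–0.13, diluted 1:50 and 1:20 to twice test density, then added 1:2 to wells holding 2-fold serial drug dilutions in RPMI 1640 (CLSI microdilution).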

[2] = tested on: Candida albicans (ATCC 90029); assay: Time kill study, Example 33 (0 to 5 min); type: cell-based; details: 1×MIC
Procedure, shortened: (§2)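 Read-out: Log10 CFU/mL by colony count on agar after 24 to 48 hrs. Exposure: strain suspension and compound solution at equal volume, CLSI method, samples at 0 min, 30 sec, 1 min and 5 mins diluted in test medium before plating.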

[3] = tested on: Staphylococcus aureus (ATCC 29213); assay: Time kill study, Example 33 (0 to 5 min); type: cell-based; details: 1×MIC
Procedure, shortened: as §2

[4] = tested on: Pseudomonas aeruginosa (ATCC 27853); assay: Time kill study, Example 33 (0 to 5 min); type: cell-based; details: 1×MIC
Procedure, shortened: as §2

[5] = tested on: Escherichia coli (ATCC 25922); assay: Time kill study, Example 33 (0 to 5 min); type: cell-based; details: 1×MIC
Procedure, shortened: as §2

[6] = ATCC90029, Table 19 summary, read-out: MIC
[7] = ATCC90029, n = 1, read-out: MIC Candida albicans
[8] = ATCC90029, n = 2, read-out: MIC Candida albicans

CCCCCCCCCCCCOC(=O)C(C)NC.Cl (stereo not drawn) [Nex-59, Dodecyl 2-(methylamino)propanoate hydrochloride]
Viable counts, Staphylococcus aureus time kill study (Staphylococcus aureus; 1 × MIC, 1 h): <3 Log10 CFU/mL | Viable counts, Staphylococcus aureus time kill study (Staphylococcus aureus; 1 × MIC, 2 h): <3 Log10 CFU/mL | Viable counts, Staphylococcus aureus time kill study (Staphylococcus aureus; 1 × MIC, 4 h): <3 Log10 CFU/mL | Viable counts, Staphylococcus aureus time kill study (Staphylococcus aureus; 1 × MIC, 6 h): <3 Log10 CFU/mL | Viable counts, Staphylococcus aureus time kill study (Staphylococcus aureus; 1 × MIC, 24 h): <1 Log10 CFU/mL | Viable counts, Staphylococcus aureus time kill study (Staphylococcus aureus; 1×MIC, time 0): 6.20 Log10 CFU/mL | Viable counts, Staphylococcus aureus time kill study (Staphylococcus aureus; 2 × MIC, 1 h): <3 Log10 CFU/mL | Viable counts, Staphylococcus aureus time kill study (Staphylococcus aureus; 2 × MIC, 2 h): <3 Log10 CFU/mL | Viable counts, Staphylococcus aureus time kill study (Staphylococcus aureus; 2 × MIC, 4 h): <3 Log10 CFU/mL | Viable counts, Staphylococcus aureus time kill study (Staphylococcus aureus; 2 × MIC, 6 h): <3 Log10 CFU/mL | Viable counts, Staphylococcus aureus time kill study (Staphylococcus aureus; 2 × MIC, 24 h): <1 Log10 CFU/mL | Viable counts, Staphylococcus aureus time kill study (Staphylococcus aureus; 2 × MIC, time 0): 6.19 Log10 CFU/mL | Viable counts, Staphylococcus aureus time kill study (Staphylococcus aureus; 4 × MIC, 1 h): <3 Log10 CFU/mL | Viable counts, Staphylococcus aureus time kill study (Staphylococcus aureus; 4 × MIC, 2 h): <3 Log10 CFU/mL | Viable counts, Staphylococcus aureus time kill study (Staphylococcus aureus; 4 × MIC, 4 h): <3 Log10 CFU/mL | Viable counts, Staphylococcus aureus time kill study (Staphylococcus aureus; 4 × MIC, 6 h): <3 Log10 CFU/mL | Viable counts, Staphylococcus aureus time kill study (Staphylococcus aureus; 4 × MIC, 24 h): <1 Log10 CFU/mL | Viable counts, Staphylococcus aureus time kill study (Staphylococcus aureus; 4 × MIC, time 0): 6.18 Log10 CFU/mL | Viable counts, Escherichia coli time kill study (Escherichia coli; 1 × MIC, 1 h): 1 Log10 CFU/mL | Viable counts, Escherichia coli time kill study (Escherichia coli; 1 × MIC, 2 h): <1 Log10 CFU/mL | Viable counts, Escherichia coli time kill study (Escherichia coli; 1 × MIC, 4 h): 1.85 Log10 CFU/mL | Viable counts, Escherichia coli time kill study (Escherichia coli; 1 × MIC, 6 h): 2.81 Log10 CFU/mL | Viable counts, Escherichia coli time kill study (Escherichia coli; 1 × MIC, 24 h): 7.91 Log10 CFU/mL | Viable counts, Escherichia coli time kill study (Escherichia coli; 1×MIC, time 0): 5 Log10 CFU/mL | Viable counts, Escherichia coli time kill study (Escherichia coli; 2 × MIC, 1 h): <1 Log10 CFU/mL | Viable counts, Escherichia coli time kill study (Escherichia coli; 2 × MIC, 2 h): <1 Log10 CFU/mL | Viable counts, Escherichia coli time kill study (Escherichia coli; 2 × MIC, 4 h): <1 Log10 CFU/mL | Viable counts, Escherichia coli time kill study (Escherichia coli; 2 × MIC, 6 h): <1 Log10 CFU/mL | Viable counts, Escherichia coli time kill study (Escherichia coli; 2 × MIC, 24 h): <1 Log10 CFU/mL | Viable counts, Escherichia coli time kill study (Escherichia coli; 2 × MIC, time 0): 5.12 Log10 CFU/mL | Viable counts, Escherichia coli time kill study (Escherichia coli; 4 × MIC, 1 h): <1 Log10 CFU/mL | Viable counts, Escherichia coli time kill study (Escherichia coli; 4 × MIC, 2 h): <1 Log10 CFU/mL | Viable counts, Escherichia coli time kill study (Escherichia coli; 4 × MIC, 4 h): <1 Log10 CFU/mL | Viable counts, Escherichia coli time kill study (Escherichia coli; 4 × MIC, 6 h): <1 Log10 CFU/mL | Viable counts, Escherichia coli time kill study (Escherichia coli; 4 × MIC, 24 h): <1 Log10 CFU/mL | Viable counts, Escherichia coli time kill study (Escherichia coli; 4 × MIC, time 0): 5.04 Log10 CFU/mL | melting point: 78 to 83 °C | MIC [1, 6]: 50 µg/mL | MIC [1, 7]: 25 µg/mL | MIC [1, 8]: 25 µg/mL | Viable counts, Candida albicans time kill study ([2]; 0.5 min): 5.18 Log10 CFU/mL | Viable counts, Candida albicans time kill study ([2]; 1 min): 5.32 Log10 CFU/mL | Viable counts, Candida albicans time kill study ([2]; 5 min): 5.23 Log10 CFU/mL | Viable counts, Candida albicans time kill study ([2]; time 0): 5.3 Log10 CFU/mL | Viable counts, Staphylococcus aureus time kill study ([3]; 0.5 min): 6.33 Log10 CFU/mL | Viable counts, Staphylococcus aureus time kill study ([3]; 1 min): 6.22 Log10 CFU/mL | Viable counts, Staphylococcus aureus time kill study ([3]; 5 min): 6.15 Log10 CFU/mL | Viable counts, Staphylococcus aureus time kill study ([3]; time 0): 6.33 Log10 CFU/mL | Viable counts, Pseudomonas aeruginosa time kill study ([4]; 0.5 min): 5.26 Log10 CFU/mL | Viable counts, Pseudomonas aeruginosa time kill study ([4]; 1 min): 4.78 Log10 CFU/mL | Viable counts, Pseudomonas aeruginosa time kill study ([4]; 5 min): <3.52 Log10 CFU/mL | Viable counts, Pseudomonas aeruginosa time kill study ([4]; time 0): 5.65 Log10 CFU/mL | Viable counts, Escherichia coli time kill study ([5]; 0.5 min): 5.04 Log10 CFU/mL | Viable counts, Escherichia coli time kill study ([5]; 1 min): 5.11 Log10 CFU/mL | Viable counts, Escherichia coli time kill study ([5]; 5 min): 4.56 Log10 CFU/mL | Viable counts, Escherichia coli time kill study ([5]; time 0): 5.34 Log10 CFU/mL

CCCCCCCCCCCCOC(=O)C(C)NC(C)C.Cl (stereo not drawn) [Nex-60, Dodecyl 2-(isopropylamino)propanoate hydrochloride]
Viable counts, Staphylococcus aureus time kill study (Staphylococcus aureus; 1 × MIC, 1 h): 6.23 Log10 CFU/mL | Viable counts, Staphylococcus aureus time kill study (Staphylococcus aureus; 1 × MIC, 2 h): 6.24 Log10 CFU/mL | Viable counts, Staphylococcus aureus time kill study (Staphylococcus aureus; 1 × MIC, 4 h): 6.16 Log10 CFU/mL | Viable counts, Staphylococcus aureus time kill study (Staphylococcus aureus; 1 × MIC, 6 h): 5.97 Log10 CFU/mL | Viable counts, Staphylococcus aureus time kill study (Staphylococcus aureus; 1 × MIC, 24 h): 6.57 Log10 CFU/mL | Viable counts, Staphylococcus aureus time kill study (Staphylococcus aureus; 1×MIC, time 0): 6.22 Log10 CFU/mL | Viable counts, Staphylococcus aureus time kill study (Staphylococcus aureus; 2 × MIC, 1 h): <3 Log10 CFU/mL | Viable counts, Staphylococcus aureus time kill study (Staphylococcus aureus; 2 × MIC, 2 h): <3 Log10 CFU/mL | Viable counts, Staphylococcus aureus time kill study (Staphylococcus aureus; 2 × MIC, 4 h): <3 Log10 CFU/mL | Viable counts, Staphylococcus aureus time kill study (Staphylococcus aureus; 2 × MIC, 6 h): <3 Log10 CFU/mL | Viable counts, Staphylococcus aureus time kill study (Staphylococcus aureus; 2 × MIC, 24 h): <1 Log10 CFU/mL | Viable counts, Staphylococcus aureus time kill study (Staphylococcus aureus; 2 × MIC, time 0): 6.20 Log10 CFU/mL | Viable counts, Staphylococcus aureus time kill study (Staphylococcus aureus; 4 × MIC, 1 h): <3 Log10 CFU/mL | Viable counts, Staphylococcus aureus time kill study (Staphylococcus aureus; 4 × MIC, 2 h): <3 Log10 CFU/mL | Viable counts, Staphylococcus aureus time kill study (Staphylococcus aureus; 4 × MIC, 4 h): <3 Log10 CFU/mL | Viable counts, Staphylococcus aureus time kill study (Staphylococcus aureus; 4 × MIC, 6 h): <3 Log10 CFU/mL | Viable counts, Staphylococcus aureus time kill study (Staphylococcus aureus; 4 × MIC, 24 h): <1 Log10 CFU/mL | Viable counts, Staphylococcus aureus time kill study (Staphylococcus aureus; 4 × MIC, time 0): 6.21 Log10 CFU/mL | Viable counts, Escherichia coli time kill study (Escherichia coli; 1 × MIC, 1 h): <1 Log10 CFU/mL | Viable counts, Escherichia coli time kill study (Escherichia coli; 1 × MIC, 2 h): <1 Log10 CFU/mL | Viable counts, Escherichia coli time kill study (Escherichia coli; 1 × MIC, 4 h): <1 Log10 CFU/mL | Viable counts, Escherichia coli time kill study (Escherichia coli; 1 × MIC, 6 h): <1 Log10 CFU/mL | Viable counts, Escherichia coli time kill study (Escherichia coli; 1 × MIC, 24 h): <1 Log10 CFU/mL | Viable counts, Escherichia coli time kill study (Escherichia coli; 1×MIC, time 0): 5.02 Log10 CFU/mL | Viable counts, Escherichia coli time kill study (Escherichia coli; 2 × MIC, 1 h): <1 Log10 CFU/mL | Viable counts, Escherichia coli time kill study (Escherichia coli; 2 × MIC, 2 h): <1 Log10 CFU/mL | Viable counts, Escherichia coli time kill study (Escherichia coli; 2 × MIC, 4 h): <1 Log10 CFU/mL | Viable counts, Escherichia coli time kill study (Escherichia coli; 2 × MIC, 6 h): <1 Log10 CFU/mL | Viable counts, Escherichia coli time kill study (Escherichia coli; 2 × MIC, 24 h): <1 Log10 CFU/mL | Viable counts, Escherichia coli time kill study (Escherichia coli; 2 × MIC, time 0): 5.14 Log10 CFU/mL | Viable counts, Escherichia coli time kill study (Escherichia coli; 4 × MIC, 1 h): <1 Log10 CFU/mL | Viable counts, Escherichia coli time kill study (Escherichia coli; 4 × MIC, 2 h): <1 Log10 CFU/mL | Viable counts, Escherichia coli time kill study (Escherichia coli; 4 × MIC, 4 h): <1 Log10 CFU/mL | Viable counts, Escherichia coli time kill study (Escherichia coli; 4 × MIC, 6 h): <1 Log10 CFU/mL | Viable counts, Escherichia coli time kill study (Escherichia coli; 4 × MIC, 24 h): <1 Log10 CFU/mL | Viable counts, Escherichia coli time kill study (Escherichia coli; 4 × MIC, time 0): 5.07 Log10 CFU/mL | melting point: 86 to 91 °C | MIC [1, 6]: 12500 µg/mL | MIC [1, 7]: 12500 µg/mL | MIC [1, 8]: 12500 µg/mL | Viable counts, Staphylococcus aureus time kill study ([3]; 0.5 min): 6.23 Log10 CFU/mL | Viable counts, Staphylococcus aureus time kill study ([3]; 1 min): 6.25 Log10 CFU/mL | Viable counts, Staphylococcus aureus time kill study ([3]; 5 min): 6.21 Log10 CFU/mL | Viable counts, Staphylococcus aureus time kill study ([3]; time 0): 6.28 Log10 CFU/mL | Viable counts, Pseudomonas aeruginosa time kill study ([4]; 0.5 min): 4.6 Log10 CFU/mL | Viable counts, Pseudomonas aeruginosa time kill study ([4]; 1 min): 3.7 Log10 CFU/mL | Viable counts, Pseudomonas aeruginosa time kill study ([4]; 5 min): <3.52 Log10 CFU/mL | Viable counts, Pseudomonas aeruginosa time kill study ([4]; time 0): 5.58 Log10 CFU/mL | Viable counts, Escherichia coli time kill study ([5]; 0.5 min): <4.0 Log10 CFU/mL | Viable counts, Escherichia coli time kill study ([5]; 1 min): 3.7 Log10 CFU/mL | Viable counts, Escherichia coli time kill study ([5]; 5 min): <3.52 Log10 CFU/mL | Viable counts, Escherichia coli time kill study ([5]; time 0): 5.88 Log10 CFU/mL
